Data taken from patent US20130180014A1, “Pyridine Compounds for Controlling Invertebrate Pests III” (BASF SE, priority 2010, published 2013).

Experiments:
Assay type in all cases: in vivo
[1] = test system: Aphis gossypii; assay: Cotton aphid, mixed life stages, method a) cotyledon dip; settings: cotton cotyledons dipped, in comparison with untreated controls
Source text: (§1) The active compounds were formulated in 50:50 (vol/vol) acetone:water and 100 ppm Kinetica™ surfactant.
Cotton plants at the cotyledon stage (one plant per pot) were infested by placing a heavily infested leaf from the main colony on top of each cotyledon. The aphids were allowed to transfer to the host plant overnight, and the leaf used to transfer the aphids was removed. The cotyledons were dipped in the test solution and allowed to dry. After days, mortality counts were made.

[2] = test system: Myzus persicae; assay: Green peach aphid, mixed life stages, method a) pepper leaf dip; settings: foliar, 120 h, pepper leaves dipped, after 5 days, in comparison with untreated controls
Source text: as §1
Pepper plants in the 2nd leaf-pair stage (variety ‘California Wonder’) were infested with approximately 40 laboratory-reared aphids by placing infested leaf sections on top of the test plants. The leaf sections were removed after 24 hr. The leaves of the intact plants were dipped into gradient solutions of the test compound and allowed to dry. Test plants were maintained under fluorescent light (24 hour photoperiod) at about 25° C. and 20-40% relative humidity. Aphid mortality on the treated plants, relative to mortality on check plants, was determined after 5 days.

[3] = test system: Megoura viciae; assay: Vetch aphid, bean leaf disk in microtiterplate; settings: foliar, 144 h, test solution 2500 mg/L, leaf disks sprayed with 2.5 μl, 6 days
Experimental: The active compounds were formulated in 1:3 (vol/vol) DMSO:water with different concentrations of formulated compounds.
Bean leaf disks were placed into microtiterplates filled with 0.8% agar-agar and 2.5 ppm OPUS™. The leaf disks were sprayed with 2.5 μl of the test solution and 5 to 8 adult aphids were placed into the microtiterplates which were then closed and kept at 23±1° C. and 50±5% relative humidity under fluorescent light for 6 days. Mortality was assessed on the basis of vital, reproduced aphids. Aphid mortality and fecundity was then visually assessed.

[4] = test system: Myzus persicae; assay: Green peach aphid, systemic, artificial diet under membrane in 96-well plate; settings: 72 h, 3 days, in comparison with untreated controls
Source text: For evaluating control of green peach aphid (Myzus persicae) through systemic means the test unit consisted of 96-well-microtiter plates containing liquid artificial diet under an artificial membrane.
The compounds were formulated using a solution containing 75% vol/vol water and 25% vol/vol DMSO. Different concentrations of formulated compounds were pipetted into the aphid diet, using a custom built pipetter, at two replications. After application, 5 to 8 adult aphids were placed on the artificial membrane inside the microtiter plate wells. The aphids were then allowed to suck on the treated aphid diet and incubated at about 23+1° C. and about 50+5% relative humidity for 3 days. Aphid mortality and fecundity was then visually assessed.

[5] = test system: Aphis craccivora; assay: Cowpea aphid, spray on potted cowpea plants; settings: cowpea plants sprayed, assessed after 24, 72 and 120 hours, in comparison with untreated controls
Experimental: The active compounds were formulated in 50:50 (vol/vol) acetone:water. The test solution was prepared at the day of use.
Potted cowpea plants colonized with 100-150 aphids of various stages were sprayed after the pest population had been recorded. Population reduction was assesed after 24, 72, and 120 hours.

O=C(Nc1cccnc1)c1cncc(C(F)(F)F)c1 [Example 18, N-Pyridin-3-yl-5-trifluoromethylnicotinamide]
mortality at 300 ppm [1]: ≥ 75%
mortality at 300 ppm [2]: ≥ 90%
mortality at 2500 µg/mL [3]: ≥ 90%
mortality at 2500 ppm [4]: 100%
mortality at 300 ppm [5]: ≥ 90%
